Measured values reported in patent US20250186461A1, “METHODS AND COMPOSITIONS FOR TREATING AND/OR PREVENTING HERNIAS” (Northwestern University, priority 2023, published 2025).
“Also recorded” adds a separate entry of the source.

Legend:
[1] = tested on: LAM primary fibroblasts from Arom^hum mice; assay: mRNA levels of P4/PGR-responsive and fibrotic genes in LAM primary fibroblasts; assay type: cell-based, mouse; settings: for E2+R5020-stimulated expression of Col1a1 and Col12a1, blockade: pretreatment with 1 μM antagonist
PGR = target: T1, PGR (Homo sapiens, UniProt P06401); settings: cited from earlier work
T1 sequence (P06401 1-933): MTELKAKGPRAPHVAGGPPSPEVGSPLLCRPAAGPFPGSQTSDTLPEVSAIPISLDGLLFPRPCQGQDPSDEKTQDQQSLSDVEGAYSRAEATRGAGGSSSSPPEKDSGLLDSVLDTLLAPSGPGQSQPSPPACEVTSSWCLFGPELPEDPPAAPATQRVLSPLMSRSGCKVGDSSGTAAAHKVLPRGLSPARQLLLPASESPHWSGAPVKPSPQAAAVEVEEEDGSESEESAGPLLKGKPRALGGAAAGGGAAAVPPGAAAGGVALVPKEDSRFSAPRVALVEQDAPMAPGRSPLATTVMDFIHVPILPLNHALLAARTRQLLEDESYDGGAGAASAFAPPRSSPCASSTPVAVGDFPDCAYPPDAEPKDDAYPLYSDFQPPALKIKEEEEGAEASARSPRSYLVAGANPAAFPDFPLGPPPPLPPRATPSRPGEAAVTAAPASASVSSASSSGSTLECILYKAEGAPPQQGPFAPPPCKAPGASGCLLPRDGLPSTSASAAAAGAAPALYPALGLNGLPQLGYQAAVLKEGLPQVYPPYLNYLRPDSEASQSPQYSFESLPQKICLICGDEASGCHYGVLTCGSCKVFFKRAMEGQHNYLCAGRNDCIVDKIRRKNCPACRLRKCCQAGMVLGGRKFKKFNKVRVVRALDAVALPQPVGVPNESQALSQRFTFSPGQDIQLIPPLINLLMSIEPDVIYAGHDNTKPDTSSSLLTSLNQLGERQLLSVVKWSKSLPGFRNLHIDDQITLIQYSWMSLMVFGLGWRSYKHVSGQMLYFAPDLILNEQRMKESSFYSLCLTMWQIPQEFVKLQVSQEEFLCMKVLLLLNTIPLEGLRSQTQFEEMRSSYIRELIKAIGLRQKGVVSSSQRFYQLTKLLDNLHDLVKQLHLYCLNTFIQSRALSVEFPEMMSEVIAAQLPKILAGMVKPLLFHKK

[2] = tested on: LAM fibroblasts from Arom^hum mice; assay: Click-iT EdU proliferation assay; assay type: cell-based, mouse; settings: 1 μM antagonist; E2 (10 nM)+R5020 (100 nM)
WT mice = assay: E2/P4-induced hernia formation in WT mice; assay type: in vivo, mouse; settings: WT male mice, concurrent treatment with P4+E2
Excerpt: All placebo-treated Arom^hum mice developed hernias starting from 5 weeks of age. None of the WT littermates developed hernias. […] The mouse scrotum is connected to the peritoneal cavity with a narrow funicular (or inguinal) canal, with walls composed of LAM tissue. Structurally normal LAM tissue is essential to maintain the tone of this canal and prevent herniation of the bowel.
Experiment 1a1: Does the addition of P4 to E2 treatment accelerate LAM fibrosis and hernia formation in WT mice? It was shown that treatment of male WT mice with extremely high doses of systemic estrogens starting around or after the onset of puberty caused inguinal hernia in one third to half of these animals^23-25. We hypothesize that this effect is primarily mediated by the E2 induction of PGR expression in LAM fibroblasts. Male mice have readily detectable P4 levels in the circulation and LAM tissue to activate PGR in LAM fibroblasts (FIG. 6). If this were true, the addition of pharmacologic quantities of P4 (75 mg/pellet for 12-week release)^73 to E2 (0.3 mg/pellet for 12-week release)^23-25 in WT mice should accelerate this phenotype. Our ongoing preliminary study, whereby a 6-week treatment with P4+E2 induced large inguinal hernia in all WT mice (FIG. 7A), supports the following experiment. Long-term (8 weeks or longer) treatment with E2 only is anticipated to cause hernias in up to half of WT mice based on previous findings^23-25. We will determine whether P4+E2 treatment over 12 weeks will give rise to larger hernias in a higher number of mice compared with E2-only treatment. […] See Statistical Methods above for sample size calculation. Hernia surface area will be measured using a digital caliper and calculated as previously described (length×width)^19. At the designated endpoints, LAM and UAM (control) from each mouse will be resected, with one-half of the tissue snap-frozen in liquid nitrogen, and the other half fixed in 4% phosphate-buffered paraformaldehyde for histological and IHC analyses (see below). […]

Compound	E2+R5020-induced expression of P4/PGR-responsive (Greb1, Cyp7b1) and fibrotic genes (Adamtsl1, Col1a1, Col14a1) ([1]; 1 μM antagonist, pretreated 2 h before E2 (10 nM)+R5020 (100 nM))	E2+R5020-stimulated expression of Col1a1 and Col12a1, blockade [1]	P4/PGR antagonism and PGR selectivity (PGR)	inhibition of E2+R5020-stimulated LAM fibroblast proliferation [2]	prevention of P4+E2-induced large hernias (WT mice)
CC(=O)O[C@]1(C(C)=O)CC[C@H]2[C@@H]3CCC4=CC(=O)CCC4=C3[C@@H](c3ccc(N(C)C)cc3)C[C@@]21C [UPA, Ulipristal acetate]	significantly decreased	blocked	very high PGR selectivity	inhibited; also recorded: blocked	–
CC#C[C@]1(O)CC[C@H]2[C@@H]3CCC4=CC(=O)CCC4=C3[C@@H](c3ccc(N(C)C)cc3)C[C@@]21C [RU486, Mifepristone]	–	blocked	–	inhibited; also recorded: blocked	completely prevented
